{"source": "paper PMC7156724", "about": "“Potent BRD4 inhibitor suppresses cancer cell-macrophage interaction” (Nature Communications, 2020)", "key": {"MDA-MB231 cells": {"test_system": "MDA-MB231 cells", "assay": "MTT cell growth assay, MDA-MB231", "assay_type": "cell-based, human", "settings": "5 days", "experimental": "Fig. 2 NHWD-870 inhibited BRD4 phosphorylation and c-MYC expression, and suppressed cell growth. a Representative western blot analysis of p-BRD4 (s484/488), BRD4, c-MYC, and GAPDH after treatment of MDA-MB231, SUM159, A2780 ES-2, and H526 cells with JQ-1 or NHWD-870 at the indicated concentrations for 24 h. GAPDH served as the loading control. Selected from three independent experiments. b MTT assays of H526, A2780, ES-2, and MDA-MB231 cells treated with JQ-1 or NHWD-870 at the indicated concentrations for 5 days. Data are presented as mean ± SEM from three independent experiments. c, d Clonogenic assays of H526, A2780, ES-2 and MDA-MB231 cells treated with 250 nM JQ-1 or NHWD-870 for 5 days. Shown are representative images (c) and quantification of colonies (d). […] Shown are representative images (e) and quantification of relative colony sizes (f). Scale bar, 50 μm. Data are presented as mean ± SEM from five independent experiments. p values were calculated using two-tailed, unpaired t tests in this figure. **p < 0.01; ***p < 0.001. Source data are provided as a Source Data file.\n37℃, 5% CO2. […]"}, "[1]": {"test_system": "TAMs (CD11b+F4/80+ cells) in A375 melanoma model", "assay": "FACS analysis of TAMs in A375 tumors", "assay_type": "in vivo, mouse", "settings": "day 21, FACS", "experimental": "Flow cytometry analyses were performed using antibodies listed in Supplementary Table 8. For cell surface markers, mouse TAM suspensions were stained with mouse APC-CD45, FITC-CD11b, PE-F4/80 or APC-F4/80, CD68, and PE-CD206 antibodies for 15 min on ice. For Ki67 staining, cells were fixed in 4% paraformaldehyde and stained with FITC-Ki67. Isotype matching antibody served as the negative control. Flow cytometry was performed on a FACSCalibur (BD Biosciences). Data were analyzed with BD CellQuest Pro software version 5.1.\n(a,b) Tumors from A375 tumor bearing mice in Figure 3e were harvested at day 21 and stained with anti-CD45, CD11b, F4/80, CD68 and Ki67 followed by FACS analysis. Shown are representative FACS plots (a ) and quantification of the percentage of CD11b+F4/80+ and CD11b+F4/80+CD68+Ki67+ cells (b). Data are presented as mean ± SEM from 5 different mice. p values were calculated using two-tailed, unpaired t tests.\n**, p<0.01; ***, p<0.001. (c,d) Tumors from mice described in Figure 4e were harvested at day 45 and stained […]"}, "[2]": {"assay": "Metabolic stability assay, human liver microsomes", "settings": "for Remaining in Human liver microsomes (Sup Fig.6e): in % (unit assumed)", "experimental": "7. Metabolic stability assay. The metabolic profile of NHWD-870 was determined using mouse, rat, dog, monkey, and human liver microsomes using the protocols […]\nNo. Compound ID Exat Mass Stock Conc.\n1) 100 mM potassium phosphate buffer, PH7.4; 2) 10mM MgCI2\n1) Intermediate solution: Dilute 5 μL of compound or control from stock solution (10 mM) with 45 uL DMSO,then mixed with 450 μL 1:1 Methanol/Water (Conc.: 10 0 […]\n2) Working solution: Dilute 50 μL from intermediate solution with 450 μL 100 mM potassium phosphate buffer (Conc.: 10 μM, 4.5%MeOH)\n(3) NADPH regenerating system (final Isocitric dehydrogenase conc.= 1 unit/mL at […]\n1) β-Nicotinamide adenine dinucleotide phosphate, Vendor: sigma Cat. No. N0505\n2) Isocitric acid, Vendor: Sigma Cat. No. I1252\n3) Isocitric dehydrogenase, Vendor: sigma Cat. No. I2002\n(4) Liver microsome solution preparation (final concentration o f 0.5 mg protein/mL) […]\nCold ACN including 100 ng/mL Tolbutamide and 100 ng/mL Labetalol as internal […]\n1) Add 10 μL compound or control working solution/well to all plates (T0, T5, T10, T20, T30, T60, NCF60) except matrix blank.\n2) Dispense 680 μL/well microsome solution to 96-well plate as reserv oir according to […]\nplate map. Then add 80 μL/well to every plate by Apricot, incubate the mixture of microsome solution and compound at 37℃ for about 10 min.\n3) Add 10 μL 100 mM potassium phosphate buffer/well to NCF60, incubate at 37℃, […]\n4) After pre-warming, dispense 90 μL/well NADPH regenerating system to 96-well plate as reservoir according to the plate map. Then add 10 μL/well to every plate by Apricot to start reaction.\n5) Incubate at 37℃, start timer 2.\n6) Add 300 (μL/well) stop solution (cold in 4℃, including 100 ng/mL Tolbutamide and 100 ng/mL Labetalol) to terminate the reaction.\n7) The sampling plates are shaked for approx 10 min.\n8) Samples are centrifuged at 4000 rpm for 20 min under 4℃.\n9) While centrifuging, load 8×new 96-well plate with 300 μL HPLC water, then transfer 100 μL supernatant, mixed for LC/MS/MS.\nUse equation of first order kinetics to calculate t1/2 and Clin t(mic): […]\nEquation of first order kinetics: […]"}, "[3]": {"settings": "human, liver microsomes, pH 7.4"}}, "note": "Values joined by “and” are separate entries in the source; they are usually repeats but may differ in a detail not shown here. Identical values can stand only once."}
{"smiles": "Cc1nnn(C)c1-c1cnc2c3c4cnn(C)c4ccc3n([C@H](c3ccccc3)C3CCOCC3)c2c1", "note": "[NHWD-870]", "values": [{"measurement": "MTT assay, relative cell number", "setting": "MDA-MB231 cells; MDA-MB231, 0.1 nM", "value": "0.965 and 0.95 and 0.937"}, {"measurement": "MTT assay, relative cell number", "setting": "MDA-MB231 cells; MDA-MB231, 1 nM", "value": "0.701 and 0.703 and 0.725"}, {"measurement": "MTT assay, relative cell number", "setting": "MDA-MB231 cells; MDA-MB231, 10 nM", "value": "0.368 and 0.306 and 0.338"}, {"measurement": "MTT assay, relative cell number", "setting": "MDA-MB231 cells; MDA-MB231, 100 nM", "value": "0.083 and 0.065 and 0.074"}, {"measurement": "MTT assay, relative cell number", "setting": "MDA-MB231 cells; MDA-MB231, 500 nM", "value": 0}, {"measurement": "MTT assay, relative cell number", "setting": "MDA-MB231 cells; MDA-MB231, 1000 nM", "value": 0}, {"measurement": "MTT assay, relative cell number", "setting": "MDA-MB231 cells; MDA-MB231, 5000 nM", "value": 0}, {"measurement": "MTT assay, relative cell number", "setting": "MDA-MB231 cells; MDA-MB231, 10000 nM", "value": 0}, {"measurement": "number of TAMs (CD11b+F4/80+ cells) or proliferating TAMs", "setting": "[1]", "value": "decreased the number of TAMs"}, {"measurement": "Remaining (T=60min)", "setting": "[2]; human liver microsomes", "value": 23.6, "unit": "%"}, {"measurement": "Remaining (*NCF=60min)", "setting": "[2]; human liver microsomes, no cofactor", "value": 74.4, "unit": "%"}, {"measurement": "CLint scaled at 1 µM", "setting": "[2]; [3]", "value": 45.3, "unit": "mL/min/kg"}, {"measurement": "half-life at 1 µM", "setting": "[2]; [3]", "value": 27.6, "unit": "min"}, {"measurement": "microsomal CLint at 1 µM", "setting": "[2]; human, microsomes, pH 7.4", "value": 50.3, "unit": "µL/min/mg"}, {"measurement": "half-life at 1 µM", "setting": "[2]; mouse, rat, dog, monkey, human, liver microsomes, pH 7.4", "value": "21 to 39", "unit": "min"}, {"measurement": "Remaining in Human liver microsomes (Sup Fig.6e)", "setting": "[2]; time 0", "value": 100}, {"measurement": "Remaining in Human liver microsomes (Sup Fig.6e)", "setting": "[2]; time 5", "value": 96.274}, {"measurement": "Remaining in Human liver microsomes (Sup Fig.6e)", "setting": "[2]; time 10", "value": 76.421}, {"measurement": "Remaining in Human liver microsomes (Sup Fig.6e)", "setting": "[2]; time 20", "value": 52.125}, {"measurement": "Remaining in Human liver microsomes (Sup Fig.6e)", "setting": "[2]; time 30", "value": 39.904}, {"measurement": "Remaining in Human liver microsomes (Sup Fig.6e)", "setting": "[2]; time 60", "value": 23.628}]}
